pEC50: −log10 of the molar value.
Molecular target: T1, S1PR1 (Homo sapiens, UniProt P21453)
T1 construct: host or cells: CHO-K1 co-expressing Ga15
Experiment: Agonistic activity test on S1P receptors, FLIPR, CHO-K1/Ga15/EDG1 cells
Type: cell-based
Conditions: CHO-K1/Ga15/EDG1 cells, FLIPR agonist mode; read-out: S1PR1 EC50
Procedure: Instrument: FLIPR™ TETRA (Molecular Device)
Experimental materials: CHO-K1/Ga15/EDG1 cells constructed by GenScript autonomously.
Sample processing: Before the experiment, the working solution with the corresponding concentration was prepared by diluting with GPCR dilution buffer.
After 18-20 hours, the cell culture plat was taken out and added with dye working solution, and then the plate was placed in a 37° C./5% CO2 incubator for 1 hour, and finally equilibrated at room temperature for 15 minutes. Positive agonist working solution was added, and RFU values were detected and recorded. […] The positive agonist working fluid was added to the cell culture plate at the 21st second. […] The antagonistic mode detection program, the overall detection time of the instrument was 120 seconds, and positive antagonist working solution was added to the cell culture plate at the 21st second.
Data processing: Raw data were obtained via ScreenWorks (version 3.1) and saved as *FMD files on the Kingsray computer network system. Data were collected and analyzed using Excel and GraphPad Prism 6 software programs. For each well, the average fluorescence intensity value from 1 to 20 seconds was used as the baseline, and the maximum fluorescence intensity value from 21 to 120 seconds minus the minimum fluorescence intensity value from 21 to 120 seconds was the relative fluorescence intensity value (ARFU), from which the percentage activation or inhibition can be calculated based on the following equation.
% Activation Rate=(ΔRFUCompound-ΔRFUBackground)/(ΔRFUAgonist control-ΔRFUBackground)×100%
The data was analyzed using GraphPad Prism 6 with a four-parameter equation to calculate the EC50 and IC50 values. The four-parameter equation was as follows: y=Bottom+(Top-Bottom)/(1+10^((LogEC50/IC50-X)*HillSlope)), wherein X is the Log value of the concentration and Y was the inhibition rate.

T1 sequence (P21453 whole entry): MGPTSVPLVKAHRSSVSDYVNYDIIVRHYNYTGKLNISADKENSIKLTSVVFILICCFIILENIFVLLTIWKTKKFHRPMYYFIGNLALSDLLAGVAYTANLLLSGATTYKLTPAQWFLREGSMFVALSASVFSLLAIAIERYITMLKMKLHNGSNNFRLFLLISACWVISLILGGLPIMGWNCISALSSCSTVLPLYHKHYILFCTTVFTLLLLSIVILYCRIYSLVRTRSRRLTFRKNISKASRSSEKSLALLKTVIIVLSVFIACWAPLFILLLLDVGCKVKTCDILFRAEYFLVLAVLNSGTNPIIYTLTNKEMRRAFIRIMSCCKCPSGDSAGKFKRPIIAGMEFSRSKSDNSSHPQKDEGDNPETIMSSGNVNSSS

Question: CC(C)Oc1ccc(-c2nc(-c3ccc(CN4CC(C(=O)O)C4)c4ccccc34)no2)cc1C#N.Cl [Compound A1, 1-((4-(5-(3-cyano-4-isopropoxyphenyl)-1,2,4-oxadiazol-3-yl)naphthalen-1-yl)methyl) azetidine-3-carboxylic acid hydrochloric acid] was tested. Which pEC50 did it give?
Answer: 7.32
